According to patent US20180008573A1, “METHODS AND COMPOSITIONS FOR REDUCING DAMAGE ASSOCIATED WITH OXIDATIVE PHOSPHORYLATION” (USANA Health Sciences, Inc., priority 2016, published 2018):
Marks after values point to notes of the source that are not given here. Each block holds one compound with its values, some of them ahead of it.

Experiments:
NF-κB reporter cells = test: Live cell multiplex assay in the NF-κB antagonist assay; format: cell-based, human
Protocol: A vehicle control was prepared.

human NF-κB = test: NF-κB antagonist reporter assay (NF-κB GRE-luciferase, HEK293 cells); format: cell-based;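 note: reporter cells carry native NF-κB receptor with firefly luciferase under upstream response elements, with a vehicle control included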
human PPARα = target: T1, human PPARα (Homo sapiens, UniProt Q07869); test: PPARα agonist reporter assay (Gal4 hybrid receptor, luciferase, CHO cells); format: cell-based
T1 construct: expressed in transfected cells; host or cells: CHO
T1 sequence (Q07869 239-466 limits assumed): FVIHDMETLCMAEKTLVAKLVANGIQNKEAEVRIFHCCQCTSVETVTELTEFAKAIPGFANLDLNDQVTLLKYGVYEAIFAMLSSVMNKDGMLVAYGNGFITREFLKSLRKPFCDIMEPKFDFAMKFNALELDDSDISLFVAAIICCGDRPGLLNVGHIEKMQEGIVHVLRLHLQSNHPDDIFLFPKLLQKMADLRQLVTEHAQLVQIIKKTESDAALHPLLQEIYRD

human PPARδ = target: T2, human PPARδ (Homo sapiens, UniProt Q03181); test: PPARδ agonist reporter assay (Gal4 hybrid receptor, luciferase, CHO cells); format: cell-based
T2 construct: expressed in transfected cells; host or cells: CHO
T2 sequence (Q03181 211-439 limits assumed): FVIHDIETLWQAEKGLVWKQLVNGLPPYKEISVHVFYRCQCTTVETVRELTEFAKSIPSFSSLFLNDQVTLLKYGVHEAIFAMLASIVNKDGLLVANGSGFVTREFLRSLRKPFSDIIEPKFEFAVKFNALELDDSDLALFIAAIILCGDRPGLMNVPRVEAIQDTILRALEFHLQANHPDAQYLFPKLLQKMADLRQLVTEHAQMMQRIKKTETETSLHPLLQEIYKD

human PPARγ = target: T3, human PPARγ (Homo sapiens, UniProt P37231); test: PPARγ agonist reporter assay (Gal4 hybrid receptor, luciferase, CHO cells); format: cell-based
T3 construct: expressed in transfected cells; host or cells: CHO
T3 sequence (P37231 238-503 limits assumed): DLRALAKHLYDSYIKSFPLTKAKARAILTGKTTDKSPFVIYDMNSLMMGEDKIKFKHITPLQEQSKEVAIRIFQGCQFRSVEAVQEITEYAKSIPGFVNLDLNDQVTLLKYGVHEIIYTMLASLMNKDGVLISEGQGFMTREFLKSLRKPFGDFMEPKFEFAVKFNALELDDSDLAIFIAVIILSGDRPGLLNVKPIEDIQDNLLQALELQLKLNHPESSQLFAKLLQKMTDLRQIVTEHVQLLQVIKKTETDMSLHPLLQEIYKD

Nrf2 = target: T4, Nrf2 (Homo sapiens, UniProt Q16236); test: Nrf2 agonist reporter assay (native receptor, ARE-luciferase, CV1 cells); format: cell-based; set-up: comprising either the native receptor (Nrf2 and NF-κB); expressed in transfected cells; host or cells: CV1
T4 sequence (Q16236 1-605): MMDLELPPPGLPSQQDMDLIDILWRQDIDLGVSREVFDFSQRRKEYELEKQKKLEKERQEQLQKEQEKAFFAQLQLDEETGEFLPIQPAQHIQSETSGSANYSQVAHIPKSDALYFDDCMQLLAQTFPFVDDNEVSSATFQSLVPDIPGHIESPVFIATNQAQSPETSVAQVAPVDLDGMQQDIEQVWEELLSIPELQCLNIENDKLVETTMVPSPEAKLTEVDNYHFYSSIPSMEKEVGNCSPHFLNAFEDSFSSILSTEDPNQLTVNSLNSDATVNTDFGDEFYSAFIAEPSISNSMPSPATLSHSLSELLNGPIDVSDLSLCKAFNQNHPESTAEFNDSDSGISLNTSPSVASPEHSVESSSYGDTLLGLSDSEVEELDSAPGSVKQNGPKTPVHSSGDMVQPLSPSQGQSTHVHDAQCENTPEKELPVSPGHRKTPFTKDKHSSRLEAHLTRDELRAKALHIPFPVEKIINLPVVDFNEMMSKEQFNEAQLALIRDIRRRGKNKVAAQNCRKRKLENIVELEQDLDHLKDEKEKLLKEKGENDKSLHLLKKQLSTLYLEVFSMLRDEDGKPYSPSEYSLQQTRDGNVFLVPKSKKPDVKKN

C. elegans strain CB5586 = test: C. elegans phenotypic lifespan screening (Kaplan-Meier, Log-Rank, Fisher's Exact Test); format: in vivo; conditions: for restricted mean lifespan, # of Days: DMSO control 13.23
Protocol: Dilutions of the test formulations were applied to individual populations of C. elegans and the lifespan of each population was monitored. Any changes in the lifespan of an individual population compared to a control population were recorded and correlated to the respective test formulation (N356 or N357) and the respective dilution (0.1 mg/ml, 1 mg/ml, and 10 mg/ml).
The […] and N357 formulations were each prepared as individual 100 mg/ml stock solutions in dimethyl sulfoxide (DMSO). Serial dilutions of each stock solution were then prepared at 0.1 mg/ml, 1 mg/ml, and 10 mg/ml in DMSO. Control solutions of DMSO only were also prepared. Synchronous aged adult populations of C.elegans strain CB5586 worms were prepared. The CB5586 strain comprises a pharyngeal GFP (green fluorescent protein) tag and a mutation in the bus-5 gene. The pharyngeal GFP tag allows for fluorescent images of the worm populations to be taken. The mutation in the bus-5 gene causes the loss of normal cuticle antigens that permits the cuticle of the worms to become permeable to the test formulations and allow direct uptake of the test formulations to avoid interaction of the test formulations with protective mechanisms of the gut channel. Each serial dilution of each test formulation was added to a separate population of the prepared worms. The control solutions were also added to separate populations of the prepared worms. The populations of the prepared worms were then maintained on standard nematode growth media (NGM) agar plates at 20° C. with sufficient food (Escherichia coli strain OP-50).
Each worm population was then monitored by fluorescent imaging to determine the number of living and dead worms as a function of time. The fluorescent imaging was analyzed by software that recognized and counted worms based on their fluorescent intensity compared to background fluorescence. […] The ability to distinguish between living and dead worms allowed the number of living worms and cumulative number of dead worms to be monitored against time. Worm populations from a selection of fluorescent images were manually checked to verify that the software had accurately counted the number of living and dead worms.
The counts of the living and dead worms as a function of time were then analyzed for each of the worm populations and used to prepare Kaplan-Meier survival curves and associated statistics for each of the worm populations. […] The median lifespan is shown as the length of time after the last mitotic division that 50% of the test population remains viable when compared to the control population. The maximum lifespan extension is shown as the length of time after the last mitotic division that 5% of the test population remains viable when compared to the control population.
The counts of the living and dead worms as a function of time and the Kaplan-Meier survival curves and the associated statistics were then analyzed for each of the worm populations. The analysis included determining mean and median lifespan. The analysis included a non-parametric test, the Log-Rank test, that compares two survival functions for the overall lifespan assay and provides a reliable p-value summarizing the whole experiment. The analysis also included Fisher's Exact Test that calculated the significance of survival function comparisons at multiple specific time points throughout the experiment, rather than for the overall lifespan. The results of the analysis are shown below in Tables 10-17.
Phenotypic screening was carried out as described in EXAMPLE 2 for various individual compounds of the N357 formulation. […] Alpha lipoic acid was sourced from PureBulk USA as a racemic mix of R and S stereoisomers and was assigned a sample number of N198. Hesperidin was sourced from Sigma Aldrich at ≧80% purity and was assigned a sample number of N347. […]

Structure (SMILES): C[C@@H]1O[C@@H](OC[C@H]2O[C@@H](Oc3c(-c4ccc(O)c(O)c4)oc4cc(O)cc(O)c4c3=O)[C@H](O)[C@@H](O)[C@@H]2O)[C@H](O)[C@H](O)[C@H]1O [Rutin, quercetin-3-O-rutinoside]
- NF-κB % Live Cell (NF-κB reporter cells; 1.11 μg/ml active ingredient): 99%
- NF-κB % Live Cell (NF-κB reporter cells; 3.3 μg/ml active ingredient): 98%
- NF-κB % Live Cell (NF-κB reporter cells; 10.0 μg/ml active ingredient): 101%
- NF-κB % Live Cell (NF-κB reporter cells; 30 μg/ml active ingredient): 97%
- NF-κB % Inhibition (human NF-κB; 1.11 μg/ml active ingredient): 10%
- NF-κB % Inhibition (human NF-κB; 3.3 μg/ml active ingredient): −2.3%
- NF-κB % Inhibition (human NF-κB; 10.0 μg/ml active ingredient): −11%
- NF-κB % Inhibition (human NF-κB; 30 μg/ml active ingredient): −15%

- PPARα Fold-Activation (human PPARα; 0.007 μg/ml active ingredient): 1.3 fold
- PPARα Fold-Activation (human PPARα; 0.022 μg/ml active ingredient): 1.3 fold
- PPARα Fold-Activation (human PPARα; 0.067 μg/ml active ingredient): 1.3 fold
- PPARα Fold-Activation (human PPARα; 0.20 μg/ml active ingredient): 1.1 fold
- PPARα Fold-Activation (human PPARα; 0.60 μg/ml active ingredient): 1.0 fold
- PPARα Fold-Activation (human PPARα; 1.81 μg/ml active ingredient): 0.86 fold
- PPARδ Fold-Activation (human PPARδ; 0.007 μg/ml active ingredient): 1.2 fold
- PPARδ Fold-Activation (human PPARδ; 0.022 μg/ml active ingredient): 1.2 fold
- PPARδ Fold-Activation (human PPARδ; 0.067 μg/ml active ingredient): 1.0 fold
- PPARδ Fold-Activation (human PPARδ; 0.20 μg/ml active ingredient): 1.2 fold
- PPARδ Fold-Activation (human PPARδ; 0.60 μg/ml active ingredient): 1.3 fold
- PPARδ Fold-Activation (human PPARδ; 1.81 μg/ml active ingredient): 1.0 fold
- PPARγ Fold-Activation (human PPARγ; 0.007 μg/ml active ingredient): 1.0 fold
- PPARγ Fold-Activation (human PPARγ; 0.022 μg/ml active ingredient): 1.0 fold
- PPARγ Fold-Activation (human PPARγ; 0.067 μg/ml active ingredient): 0.95 fold
- PPARγ Fold-Activation (human PPARγ; 0.20 μg/ml active ingredient): 0.96 fold
- PPARγ Fold-Activation (human PPARγ; 0.60 μg/ml active ingredient): 0.90 fold
- PPARγ Fold-Activation (human PPARγ; 1.81 μg/ml active ingredient): 1.1 fold
- Nrf2 Fold-Activation (Nrf2; 0.007 μg/ml active ingredient): 1.6 fold
- Nrf2 Fold-Activation (Nrf2; 0.022 μg/ml active ingredient): 1.7 fold
- Nrf2 Fold-Activation (Nrf2; 0.067 μg/ml active ingredient): 1.4 fold
- Nrf2 Fold-Activation (Nrf2; 0.20 μg/ml active ingredient): 0.96 fold
- Nrf2 Fold-Activation (Nrf2; 0.60 μg/ml active ingredient): 1.0 fold
- Nrf2 Fold-Activation (Nrf2; 1.81 μg/ml active ingredient): 1.6 fold
Structure (SMILES): COc1cc(/C=C/C(=O)CC(=O)/C=C/c2ccc(O)c(OC)c2)ccc1O [Curcumin, curcumin]
- NF-κB % Live Cell (NF-κB reporter cells; 0.007 μg/ml active ingredient): 105%
- NF-κB % Live Cell (NF-κB reporter cells; 0.022 μg/ml active ingredient): 105%
- NF-κB % Live Cell (NF-κB reporter cells; 0.067 μg/ml active ingredient): 106%
- NF-κB % Live Cell (NF-κB reporter cells; 0.20 μg/ml active ingredient): 105%
- NF-κB % Live Cell (NF-κB reporter cells; 0.60 μg/ml active ingredient): 99%
- NF-κB % Live Cell (NF-κB reporter cells; 1.81 μg/ml active ingredient): 97%
- NF-κB % Inhibition (human NF-κB; 0.007 μg/ml active ingredient): −10%
- NF-κB % Inhibition (human NF-κB; 0.022 μg/ml active ingredient): −3.4%
- NF-κB % Inhibition (human NF-κB; 0.067 μg/ml active ingredient): −0.29%
- NF-κB % Inhibition (human NF-κB; 0.20 μg/ml active ingredient): 22%
- NF-κB % Inhibition (human NF-κB; 0.60 μg/ml active ingredient): 30%
- NF-κB % Inhibition (human NF-κB; 1.81 μg/ml active ingredient): 51** %
- antagonist activity against human NF-κB (human NF-κB; at the concentrations tested): very low-level antagonist activity

Structure (SMILES): COc1ccc([C@@H]2CC(=O)c3c(O)cc(O[C@@H]4O[C@H](CO[C@@H]5O[C@@H](C)[C@H](O)[C@@H](O)[C@H]5O)[C@@H](O)[C@H](O)[C@H]4O)cc3O2)cc1O [N347, hesperidin]
- Statistically Significant Result (lifespan vs. DMSO control) (C. elegans strain CB5586; 0.1 mg/ml): Statistically significant increase
- extension of lifespan (C. elegans strain CB5586; 0.1 mg/ml): about 10%
- population age in days at 25% mortality (C. elegans strain CB5586; 0.1 mg/ml): 11 days
- population age in days at 50% mortality (C. elegans strain CB5586; 0.1 mg/ml): 16 days
- population age in days at 75% mortality (C. elegans strain CB5586; 0.1 mg/ml): 18 days
- effect on chronological lifespan (C. elegans strain CB5586; 0.1 mg/ml and 10 mg/ml tested): significant positive and dose dependent increase of chronological lifespan
- % Change in Mean Lifespan (C. elegans strain CB5586; 0.1 mg/ml vs. DMSO control): +10%
- restricted mean lifespan, # of Days (C. elegans strain CB5586; 0.1 mg/ml): 14.55 days
- Statistically Significant Result (lifespan vs. DMSO control) (C. elegans strain CB5586; 10 mg/ml): No statistical difference
- population age in days at 25% mortality (C. elegans strain CB5586; 10 mg/ml): 11 days
- population age in days at 50% mortality (C. elegans strain CB5586; 10 mg/ml): 14 days
- population age in days at 75% mortality (C. elegans strain CB5586; 10 mg/ml): 18 days
- restricted mean lifespan, # of Days (C. elegans strain CB5586; 10 mg/ml): 14.19 days
